Key:
Type in all cases: cell-based
[1] = tested on: Human liver cancer cell line HepG2; test: Evaluation of hepatotoxic substance by high content analysis (Experimental Example 9); conditions: for average cell number per sphere / average dead cell number in sphere / average sphere number per 20 mm^2 / projected area: 0.03 (w/v)% low-molecular agar medium, 2 days with flutamide
Method: (§1) By a method similar to the preparation method of medium composition of Experimental Example 1, a medium composition containing 10 (v/v) % FBS and 0.03 (w/v) % of low-molecular agar (“ultraagar Ena”, manufactured by InaFood Industry) in DMEM (manufactured by Wako Pure Chemical Industries, Ltd.) was prepared. Human liver cancer cell line HepG2 (manufactured by DS PHARMA BIOMEDICAL CO., LTD.) was suspended in the above-mentioned medium composition containing low-molecular agar at 11,000 cells/mL. The above-mentioned cell suspension was dispensed to the wells of a 96 well flat bottom ultra-low attachment surface microplate (manufactured by Corning Incorporated, #3474) at 90 μL per 1 well, and the plate was cultured in a standing state in a CO2 incubator (37° C., 5% CO2) for 3 days. On day 3 of culture, flutamide (manufactured by Sigma-Aldrich) was added by 10 μL per 1 well. Successively, the plate was further cultured in a standing state in a CO2 incubator (37° C., 5% CO2) for 2 days. As a comparison control, HepG2 cells were suspended in DMEM containing 10 (v/v) % FBS and the suspension was dispensed to a 96 well flat bottom adhesion surface microplate (manufactured by Corning Incorporated, #3585), and a similar operation was performed.
Then, a solution of […] of Hoechst 33342 (manufactured by Invitrogen) in DMEM (phenol red, L-glutamine free) (manufactured by Wako Pure Chemical Industries, Ltd.) was prepared, and added, at 10 μL per 1 well, to each culture after static culture for 5 days using the above-mentioned low-molecular agar-containing medium and comparison control, and the mixture was stood in a CO2 incubator (37° C., 5% CO2) for 45 min. Successively, a solution of 20 μg/mL Propidium Iodide (manufactured by BIOMOL) in DMEM (phenol red, L-glutamine free) (manufactured by Wako Pure Chemical Industries, Ltd.) was prepared and added at 10 μL per 1 well, and the culture medium was suspended. The plate was centrifuged at 1,500 rpm for 1 min, and high content analysis was performed by cell image analysis using a cell imaging apparatus (“ArrayScan VTI HCS Reader”, manufactured by Thermo Fisher Scientific). At that time, observation was performed with 20 fields of view per well using a ×10 objective lens, cell outline and cell nucleus were detected from Hoechst33342 fluorescence image, and dead cells were detected from propidium iodide fluorescence image. In addition, 50% inhibitory concentration (μM) of flutamide by high content analysis was calculated from the number of cells constituting the spheres, with the value without addition of flutamide as 0% sphere formation inhibitory rate.
(§2) The number of constituent cells of HepG2 cell spheres, sphere number, projected area of sphere (size) (μm^2) and the dead cell number in the sphere, obtained from the cell imaging analysis, are shown in Table 26. Furthermore, the relative cell number when the amount of luminescence without addition of the anticancer agent is 100 was determined from the measurement results of the surviving cell number by luminescence, using the intracellular ATP as an index, and shown in Table 27. In addition, the 50% inhibitory concentration (μM) of flutamide calculated from the amount of luminescence based on intracellular ATP and constituent cell number obtained by high content analysis are shown in Table 28.

[2] = tested on: Human liver cancer cell line HepG2; test: Evaluation of hepatotoxic substance by CellTiter-Glo cell survival assay (Experimental Example 9); conditions: for IC50: Homo sapiens, HepG2, cell survival assay by luminescence, read-out: 50% inhibitory concentration
Method: as §1
CellTiter-Glo Luminescent Cell Viability Assay (manufactured by Promega) (100 μL) was added to the low-molecular agar-containing culture medium and comparison control, the mixture was stood for 10 min at room temperature, and the amount of luminescence was measured by a microplate reader (“FlexStation 3”, manufactured by Molecular Devices) and according to the protocol recommended by Promega. The amount of luminescence of the medium alone was subtracted, whereby the number of viable cells was measured. In addition, 50% inhibitory concentration (μM) of flutamide by the amount of luminescence was calculated with the number of viable cells when flutamide was not added as 0% inhibition rate.
as §2

[3] = tested on: adenocarcinomic human alveolar basal epithelial cell line A549; test: High content analysis of anticancer agents by cell image analysis (Experimental Example 8); conditions: for average cell number per sphere / average dead cell number in sphere / average sphere number per 20 mm^2 / projected area: 0.03 (w/v)% low-molecular agar medium, 7 days with agent;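 for projected area: Projected area in square micrometres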
Method: Adenocarcinomic human alveolar basal epithelial cell line A549 (manufactured by DS PHARMA BIOMEDICAL CO., LTD.) was suspended in the above-mentioned medium composition containing low-molecular agar at 11,000 cells/mL. […] The plate was stood in a CO2 incubator (37° C., 5% CO2) overnight. The next day, paclitaxel (manufactured by Wako Pure Chemical Industries, Ltd.) and trametinib (manufactured by SANTA CRUZ) were further added by 10 μl per 1 well at a final concentration of 0.001 μM, 0.01 μM and 0.1 μM, respectively, mitomycin C (manufactured by Wako Pure Chemical Industries, Ltd.) at a final concentration of 0.005 μM, 0.05 μM and 0.5 μM, and MK2206 (manufactured by SANTA CRUZ) at a final concentration of 0.001 μM, 0.01 μM, 0.1 μM and 1 μM. Successively, the plate was further cultured in a standing state in a CO2 incubator (37° C., 5% CO2) for 7 days.
Successively, a solution of 20 μg/mL Propidium Iodide (manufactured by BIOMOL) in DMEM (phenol red, L-glutamine free) (manufactured by Wako Pure Chemical Industries, Ltd.) was prepared and added at 10 μL per 1 well, and the culture medium was suspended. The plate was centrifuged at 1,500 rpm for 1 min, and high content analysis was performed by cell image analysis using a cell imaging apparatus (“ArrayScan VTI HCS Reader”, manufactured by Thermo Fisher Scientific). At that time, observation was performed with 20 fields of view per well using a ×10 objective lens, cell outline and cell nucleus were detected from Hoechst33342 fluorescence image, and dead cells were detected from propidium iodide fluorescence image. In addition, 50% inhibitory concentration (nM) of each anticancer agent by high content analysis was calculated from the number of spheres constituted of not less than 5 cells. In this case, the value without addition of the anticancer agent was taken as 0% sphere formation inhibitory rate.

[4] = tested on: adenocarcinomic human alveolar basal epithelial cell line A549; test: CellTiter-Glo cell survival assay of anticancer agents (Experimental Example 8); conditions: for IC50: Homo sapiens, A549, cell survival assay by luminescence, read-out: 50% inhibitory concentration
Method: Adenocarcinomic human alveolar basal epithelial cell line A549 (manufactured by DS PHARMA BIOMEDICAL CO., LTD.) was suspended in the above-mentioned medium composition containing low-molecular agar at 11,000 cells/mL. The above-mentioned cell suspension was dispensed to the wells of a 96 well flat bottom ultra-low attachment surface microplate (manufactured by Corning Incorporated, #3474) at 90 μL per 1 well. The plate was stood in a CO2 incubator (37° C., 5% CO2) overnight. […] Successively, the plate was further cultured in a standing state in a CO2 incubator (37° C., 5% CO2) for 7 days. As a negative control, a medium composition containing 10 (v/v) % FBS alone in DMEM (manufactured by Wako Pure Chemical Industries, Ltd.) was prepared. […] A549 cells were also suspended in each of the negative control and comparison control medium compositions, the negative control was dispensed to a 96 well flat bottom attachment surface microplate (manufactured by Corning Incorporated, #3585) and the comparison control was dispensed to a 96 well flat bottom ultra-low attachment surface microplate (manufactured by Corning Incorporated, #3474). […] CellTiter-Glo Luminescent Cell Viability Assay (manufactured by Promega) (100 μL) was added to the low-molecular agar-containing culture medium and each cell culture medium of the negative control and comparison control, the mixture was stood for 10 min at room temperature, and the amount of luminescence was measured by a microplate reader (“FlexStation 3”, manufactured by Molecular Devices) and according to the protocol recommended by Promega. The amount of luminescence of the medium alone was subtracted, whereby the number of viable cells was measured.

## CC(C)C(=O)Nc1ccc([N+](=O)[O-])c(C(F)(F)F)c1 [flutamide]
[1]; Homo sapiens, HepG2, high content analysis by cell image analysis, number of cells constituting the spheres, low-molecular agar-containing medium, read-out: 50% inhibitory concentration
  IC50: 73400 nM
[1]; flutamide 0.8 μM
  average cell number per sphere: 7.977
  average dead cell number in sphere: 0.06
  average sphere number per 20 mm^2: 190.7
  projected area: 1988 μm^2
[1]; flutamide 4 μM
  average cell number per sphere: 8.89
  average dead cell number in sphere: 0.037
  average sphere number per 20 mm^2: 145.3
  projected area: 2180 μm^2
[1]; flutamide 20 μM
  average cell number per sphere: 9.263
  average dead cell number in sphere: 0.067
  average sphere number per 20 mm^2: 129.7
  projected area: 2403 μm^2
[1]; flutamide 100 μM
  average cell number per sphere: 3.76
  average dead cell number in sphere: 0.007
  average sphere number per 20 mm^2: 153.7
  projected area: 861 μm^2
[1]; flutamide 500 μM
  average cell number per sphere: 1.567
  average dead cell number in sphere: 1.163
  average sphere number per 20 mm^2: 7.3
  projected area: 408 μm^2
[2]; comparison control (DMEM, 10% FBS, adhesion surface plate)
  IC50: 51700 nM
[2]; low-molecular agar containing medium
  IC50: 53600 nM
[2]; flutamide 0.8 μM, comparison control (DMEM, 10% FBS, adhesion surface plate)
  relative cell number (no addition = 100): 100.2
[2]; flutamide 0.8 μM, low-molecular agar-containing medium
  relative cell number (no addition = 100): 109.6
[2]; flutamide 4 μM, comparison control (DMEM, 10% FBS, adhesion surface plate)
  relative cell number (no addition = 100): 109.6
[2]; flutamide 4 μM, low-molecular agar-containing medium
  relative cell number (no addition = 100): 98.7
[2]; flutamide 20 μM, comparison control (DMEM, 10% FBS, adhesion surface plate)
  relative cell number (no addition = 100): 93.5
[2]; flutamide 20 μM, low-molecular agar-containing medium
  relative cell number (no addition = 100): 89.8
[2]; flutamide 100 μM, comparison control (DMEM, 10% FBS, adhesion surface plate)
  relative cell number (no addition = 100): 22.5
[2]; flutamide 100 μM, low-molecular agar-containing medium
  relative cell number (no addition = 100): 22.4
[2]; flutamide 500 μM, comparison control (DMEM, 10% FBS, adhesion surface plate)
  relative cell number (no addition = 100): 15.4
[2]; flutamide 500 μM, low-molecular agar-containing medium
  relative cell number (no addition = 100): 8.1

## CC(=O)Nc1cccc(-n2c(=O)n(C3CC3)c(=O)c3c(Nc4ccc(I)cc4F)n(C)c(=O)c(C)c32)c1 [trametinib]
[3]; Homo sapiens, A549, high content analysis by cell image analysis, number of spheres of not less than 5 cells, low-molecular agar-containing medium, read-out: 50% inhibitory concentration
  IC50: 5.1 nM
[3]; agent 0.001 μM
  average cell number per sphere: 4.272
  average dead cell number in sphere: 0.073
  average sphere number per 20 mm^2: 218.7
  projected area: 1200 μm^2
[3]; agent 0.01 μM
  average cell number per sphere: 2.906
  average dead cell number in sphere: 0.09
  average sphere number per 20 mm^2: 173.9
  projected area: 976.6 μm^2
[3]; agent 0.1 μM
  average cell number per sphere: 1.867
  average dead cell number in sphere: 0.178
  average sphere number per 20 mm^2: 132.8
  projected area: 618.3 μm^2
[4]; comparison control (0.015 (w/v)% deacylated gellan gum medium)
  IC50: 11.5 nM
[4]; low-molecular agar-containing medium
  IC50: 8.1 nM
[4]; negative control (DMEM, 10% FBS, attachment surface plate)
  IC50: 62.5 nM
[4]; agent 0.001 μM, comparison control (0.015 (w/v)% deacylated gellan gum medium)
  relative cell number (no anticancer agent = 100): 93.3
[4]; agent 0.001 μM, low-molecular agar-containing medium
  relative cell number (no anticancer agent = 100): 92.2
[4]; agent 0.001 μM, negative control (DMEM, 10% FBS, attachment surface plate)
  relative cell number (no anticancer agent = 100): 101.2
[4]; agent 0.01 μM, comparison control (0.015 (w/v)% deacylated gellan gum medium)
  relative cell number (no anticancer agent = 100): 52.5
[4]; agent 0.01 μM, low-molecular agar-containing medium
  relative cell number (no anticancer agent = 100): 45.8
[4]; agent 0.01 μM, negative control (DMEM, 10% FBS, attachment surface plate)
  relative cell number (no anticancer agent = 100): 99
[4]; agent 0.1 μM, comparison control (0.015 (w/v)% deacylated gellan gum medium)
  relative cell number (no anticancer agent = 100): 18.1
[4]; agent 0.1 μM, low-molecular agar-containing medium
  relative cell number (no anticancer agent = 100): 18.2
[4]; agent 0.1 μM, negative control (DMEM, 10% FBS, attachment surface plate)
  relative cell number (no anticancer agent = 100): 37.4
